Our source for the pest or weed control values is US20210403435A1, “HERBICIDAL COMPOUNDS” (SYNGENTA CROP PROTECTION AG, priority 2018, published 2021).

Holding throughout (test): Post-emergence efficacy, glasshouse, evaluated after 13 days
Format in all cases: in vivo

For experiment [1], the system named is Amaranthus palmeri (AMAPA). The settings on record: Amaranthus palmeri, 312 h; post-emergence application, 500 g/Ha, evaluated after 13 days; read-out: Control of weed species AMAPA (100=total damage to plant; 0=no damage to plant). As for the experimental part:
(§1) Seeds of a variety of test species were sown in standard soil in pots. After cultivation for 14 days (post-emergence) under controlled conditions in a glasshouse (at 24/16° C., day/night; 14 hours light; 65% humidity), the plants were sprayed with an aqueous spray solution derived from the dissolution of the technical active ingredient formula (I) in a small amount of acetone and a special solvent and emulsifier mixture referred to as IF50 (11.12% Emulsogen EL360 TM+44.44% N-methylpyrrolidone+44.44% Dowanol DPM glycol ether), to create a 50 g/l solution which was then diluted to required concentration using 0.25% or 1% Empicol ESC70 (Sodium lauryl ether sulphate)+1% ammonium sulphate as diluent.
(§2) The test plants were then grown in a glasshouse under controlled conditions (at 24/16° C., day/night; 14 hours light; 65% humidity) and watered twice daily. After 13 days the test was evaluated (100=total damage to plant; 0=no damage to plant).
(§3) Ipomoea hederacea (IPOHE), Euphorbia heterophylla (EPHHL), Chenopodium album (CHEAL), Amaranthus palmeri (AMAPA), Lolium perenne (LOLPE), Digitaria sanguinalis (DIGSA), Eleusine indica (ELEIN), Echinochloa crus-galli (ECHCG), Setaria faberi (SETFA)

Experiment [2] relates to Chenopodium album (CHEAL). The note with it: Chenopodium album, 312 h, read-out: Control of weed species CHEAL (100=total damage to plant; 0=no damage to plant). As for the experimental part:
as §1, §2, §3

Experiment [3] has as its system Digitaria sanguinalis (DIGSA). The note with it: Digitaria sanguinalis, 312 h, read-out: Control of weed species DIGSA (100=total damage to plant; 0=no damage to plant). On the procedure: as §1, §2, §3
Experiment [4] concerns Echinochloa crus-galli (ECHCG). The note with it: Echinochloa crus-galli, 312 h, read-out: Control of weed species ECHCG (100=total damage to plant; 0=no damage to plant). As for the experimental part:
as §1, §2, §3

The test system of the next experiment is Eleusine indica (ELEIN). The settings on record: Eleusine indica, 312 h, read-out: Control of weed species ELEIN (100=total damage to plant; 0=no damage to plant). On the procedure:
as §1, §2, §3

Experiment [5] has as its system Euphorbia heterophylla (EPHHL). The note with it: Euphorbia heterophylla, 312 h, read-out: Control of weed species EPHHL (100=total damage to plant; 0=no damage to plant). As for the experimental part: as §1, §2, §3
Experiment [6] deals with Ipomoea hederacea (IPOHE). The settings on record: Ipomoea hederacea, 312 h, read-out: Control of weed species IPOHE (100=total damage to plant; 0=no damage to plant). On the procedure: as §1, §2, §3
In the next experiment the test system is Lolium perenne (LOLPE). The note with it: Lolium perenne, 312 h, read-out: Control of weed species LOLPE (100=total damage to plant; 0=no damage to plant). As for the experimental part:
as §1, §2, §3

For the next experiment, the system named is Setaria faberi (SETFA). The note with it: Setaria faberi, 312 h, read-out: Control of weed species SETFA (100=total damage to plant; 0=no damage to plant). On the procedure: as §1, §2, §3
[7] abbreviates: post-emergence application, 500 g/Ha, evaluated after 13 days.

Counter-ions that a name gives are not always drawn. Like-named read-outs stand apart in the source and are kept apart here.

In the case of `CC1CC1NC(=O)c1cc[n+](CCC(=O)O)nc1` (stereo not shown) [Compound A101], the pest or weed control at 500 g/ha was 100% in [1]; 100% in experiment [2] (setting [7]); 100% in [3] (setting [7]); 90% in experiment [4] (setting [7]); 70% in the experiment with Eleusine indica (ELEIN) (setting [7]); 50% in experiment [5] (setting [7]). Further, the pest or weed control at 500 g/ha in [6] (setting [7]) is 50%; in the experiment with Lolium perenne (LOLPE) (setting [7]), 80%; in the experiment on Setaria faberi (SETFA) (setting [7]), 90%.

For the compound `COC(=O)CC[n+]1ccc(C(=O)N(C)C)cn1` [Compound A2], the pest or weed control at 500 g/ha in [1] stood at 10%; in [2] (setting [7]), 10%; in experiment [3] (setting [7]), 50%; in experiment [4] (setting [7]) it was 30%; with Eleusine indica (ELEIN) (setting [7]) it was 10%; in experiment [5] (setting [7]) it was 50%. The results for the pest or weed control at 500 g/ha (in experiment [6] (setting [7]); in the experiment with Lolium perenne (LOLPE) (setting [7]); in the experiment on Setaria faberi (SETFA) (setting [7])) were 20%, 20% and 30%, respectively.

As for `O=C(O)CC[n+]1ccc(C(=O)NC2CSC2)cn1` [Compound A69], the pest or weed control at 500 g/ha in [1] came out at 90%; in [2] (setting [7]), 60%; in [3] (setting [7]) it was 100%; in [4] (setting [7]), 100%; in the experiment on Eleusine indica (ELEIN) (setting [7]) it was 30%; in experiment [5] (setting [7]), 70%. Further, the results for the pest or weed control at 500 g/ha (in experiment [6] (setting [7]); in the experiment on Lolium perenne (LOLPE) (setting [7]); in the experiment with Setaria faberi (SETFA) (setting [7])) were 40%, 40% and 100%, respectively.

`O=C(NC1CC1)c1cc[n+](CCCOS(=O)(=O)[O-])nc1` [Compound A126]: the pest or weed control at 500 g/ha in experiment [1] worked out at 10%; in experiment [2] (setting [7]), 60%; in [3] (setting [7]), 40%; in experiment [4] (setting [7]), 60%; in the experiment with Eleusine indica (ELEIN) (setting [7]), 40%; in experiment [5] (setting [7]), 60%. The pest or weed control at 500 g/ha in [6] (setting [7]) turned out to be 50%; with Lolium perenne (LOLPE) (setting [7]) it was 50%; in the experiment with Setaria faberi (SETFA) (setting [7]), 70%.

Regarding `CC(CO)NC(=O)c1cc[n+](CCC(=O)O)nc1` (stereo not shown) [Compound A123], the pest or weed control at 500 g/ha is 100% in experiment [1]; 90% in experiment [2] (setting [7]); 100% in experiment [3] (setting [7]); 90% in [4] (setting [7]); 100% with Eleusine indica (ELEIN) (setting [7]); 90% in experiment [5] (setting [7]). In addition, the pest or weed control at 500 g/ha in [6] (setting [7]) turned out to be 50%; with Lolium perenne (LOLPE) (setting [7]), 50%; in the experiment on Setaria faberi (SETFA) (setting [7]), 100%.

Regarding `O=C(O)CC[n+]1ccc(C(=O)NCc2ccc(C(F)(F)F)cc2)cn1` [Compound A98], the pest or weed control at 500 g/ha was 90% in [1]; 70% in experiment [2] (setting [7]); 60% in experiment [3] (setting [7]); 50% in experiment [4] (setting [7]); 90% in the experiment with Eleusine indica (ELEIN) (setting [7]); 100% in [5] (setting [7]). For the same compound, the pest or weed control at 500 g/ha amounted to 20% in experiment [6] (setting [7]), 0% in the experiment with Lolium perenne (LOLPE) (setting [7]) and 30% with Setaria faberi (SETFA) (setting [7]).

As for `CC(C)(C)NC(=O)c1cc[n+](CCS(=O)(=O)O)nc1` [Compound A13], the pest or weed control at 500 g/ha in experiment [1] is 100%; in [2] (setting [7]), 100%; in [3] (setting [7]), 80%; in experiment [4] (setting [7]) it was 60%; in the experiment on Eleusine indica (ELEIN) (setting [7]), 70%; in [5] (setting [7]) it was 70%. Also, the pest or weed control at 500 g/ha in experiment [6] (setting [7]) amounted to 60%; in the experiment with Lolium perenne (LOLPE) (setting [7]) it was 60%; in the experiment with Setaria faberi (SETFA) (setting [7]) it was 80%.

As for `COCCNC(=O)c1cc[n+](CCNS(=O)(=O)[O-])nc1` [Compound A139], the pest or weed control at 500 g/ha in experiment [1] amounted to 90%; in [2] (setting [7]), 100%; in [3] (setting [7]) it was 90%; in [4] (setting [7]), 70%; with Eleusine indica (ELEIN) (setting [7]) it was 100%; in experiment [5] (setting [7]) it was 80%. Further, the pest or weed control at 500 g/ha in experiment [6] (setting [7]) worked out at 40%; in the experiment with Lolium perenne (LOLPE) (setting [7]), 20%; in the experiment on Setaria faberi (SETFA) (setting [7]), 70%.

Consider `CC(=O)CNC(=O)c1cc[n+](CCC(=O)O)nc1` [Compound A129], for which the pest or weed control at 500 g/ha was determined as 100% in experiment [1]; 100% in [2] (setting [7]); 100% in [3] (setting [7]); 60% in experiment [4] (setting [7]); 90% in the experiment on Eleusine indica (ELEIN) (setting [7]); 80% in experiment [5] (setting [7]). Also, the pest or weed control at 500 g/ha in experiment [6] (setting [7]) was determined as 20%; with Lolium perenne (LOLPE) (setting [7]) it was 70%; with Setaria faberi (SETFA) (setting [7]), 100%.

For `N#Cc1ccc(CNC(=O)c2cc[n+](CCC(=O)O)nc2)cc1` [Compound A96], the pest or weed control at 500 g/ha was found to be 100% in [1]; 80% in [2] (setting [7]); 20% in [3] (setting [7]); 20% in experiment [4] (setting [7]); 50% in the experiment on Eleusine indica (ELEIN) (setting [7]); 100% in experiment [5] (setting [7]). The pest or weed control at 500 g/ha worked out at 40% in experiment [6] (setting [7]), 20% with Lolium perenne (LOLPE) (setting [7]) and 30% in the experiment with Setaria faberi (SETFA) (setting [7]).

For the compound `CC(O)CNC(=O)c1cc[n+](CCC(=O)O)nc1` (stereo not shown) [Compound A128], the pest or weed control at 500 g/ha in experiment [1] stood at 100%; in [2] (setting [7]), 90%; in experiment [3] (setting [7]) it was 100%; in experiment [4] (setting [7]) it was 40%; in the experiment on Eleusine indica (ELEIN) (setting [7]) it was 90%; in [5] (setting [7]) it was 100%. The pest or weed control at 500 g/ha in [6] (setting [7]) is 30%; in the experiment on Lolium perenne (LOLPE) (setting [7]), 80%; with Setaria faberi (SETFA) (setting [7]), 90%.

Regarding `CNC(=O)c1cc[n+](CCC(=O)O)nc1` [Compound A4, 3-[4-(methylcarbamoyl)pyridazin-1-ium-1-yl]propanoic acid trifluoroacetate], the pest or weed control at 500 g/ha in experiment [2] (post-emergence) was 80%; in experiment [3] (post-emergence), 100%; in experiment [4] (post-emergence), 90%; in the experiment with Eleusine indica (ELEIN) (post-emergence), 100%; in experiment [5] (post-emergence), 90%; in experiment [6] (post-emergence) it was 80%. Further, the pest or weed control at 500 g/ha in the experiment with Lolium perenne (LOLPE) (post-emergence) was determined as 60%; with Setaria faberi (SETFA) (post-emergence), 90%.

`O=C(O)CC[n+]1ccc(C(=O)NC2C[S+]([O-])C2)cn1` (stereo not shown) [Compound A68]: the pest or weed control at 500 g/ha came to 100% in experiment [1]; 90% in experiment [2] (setting [7]); 100% in experiment [3] (setting [7]); 100% in [4] (setting [7]); 100% in [5] (setting [7]); 100% in [6] (setting [7]). In addition, the values for the pest or weed control at 500 g/ha with Lolium perenne (LOLPE) (setting [7]) and with Setaria faberi (SETFA) (setting [7]) were 90% and 70%, respectively.
